The values that follow come from article PMC10700673, “A Smart Intracellular Self‐Assembling Bioorthogonal Raman Active Nanoprobe for Targeted Tumor Imaging” (Advanced Science, 2023).

One assay relates to DU145 cells. The assay is described as follows: confocal Raman imaging of cells. Type of assay: cell-based. To be noted: 100 µM, 3 h, then fresh media 30 min; fixed cells; DU145, legumain overexpressing. The protocol:
(§1) Raman measurements were performed on cells cultured on quartz slides. Cells were incubated with 100 µM nanoSABER probe solution for 3 h, then fresh media was added and incubation was continued for an extra 30 min. Subsequently, the cells were washed three times with phosphate‐buffered saline (PBS), fixed with 4% paraformaldehyde (PFA) for 20 min, and washed with PBS again. Finally, cells were imaged using a confocal Raman microscope. Cell boundaries were constructed using the Raman peak at 1440 cm^−1 characteristic of intrinsic cellular signals.^[ [29] ^] […] These spectral features indicate legumain‐mediated intracellular self‐assembly of nanoSABER into alkyne‐dimer nanoparticles in DU145 cells. The Raman mapping results were consistent with our in vitro solution‐based measurements (Figure 2f) where the nitrile peak diminished after the formation of alkyne‐dimer.
(§2) Raman spectra of all synthesized peptides were acquired using a 785 nm laser and a 50× objective. The acquisition time was 10 s with 5 repetitions. All spectra were processed using custom‐written scripts in MATLAB for a tenth‐order least‐squares polynomial baseline correction with a moving window of 50. All Raman cellular imaging maps were acquired using 785 nm laser excitation and a 60× water immersion objective. For each acquisition time, the number of accumulations were 6 s and 8 acquisitions, respectively. For sample preparation, 1 × 10^5 cells were cultured in six‐well plates containing 10×10 mm quartz slides for 24 h. Cells were incubated with 100 µM of nanoSABER or Scr nanoprobe for 3 h followed by replacement with fresh media and additional incubation for 30 min. Cells were washed with PBS three times and then fixed with 4 % paraformaldehyde (PFA) for 20 min, resuspended back in PBS, and then imaged using a confocal Raman microscope. […] For each group, three independent experiments were performed, and from each pellet, we recorded Raman spectra from eight different positions. […]

Another assay relates to RWPE1 cells. Kind of assay: confocal Raman imaging of cells. Type of assay: cell-based. To be noted: 100 µM, 3 h, then fresh media 30 min; fixed cells; RWPE1, normal prostate epithelium. The procedure: as §1, §2
The test system of another assay is LNCaP cells. Kind of assay: confocal Raman imaging of cells. The assay is classed as cell-based. The conditions noted are these: 100 µM, 3 h, then fresh media 30 min, fixed cells, legumain low-expressing. The procedure: as §1, §2
For the next assay, the system named is DU145 tumor. Kind of assay: in vivo Raman imaging of tumor-bearing mice. Also on record: species or system NU/J nude mice. The conditions noted are these: 2 h after IV injection of 0.0125 mmol kg-1. The protocol: (§3) To further evaluate the ability of the nanoSABER probe to delineate legumain‐overexpressing tumors, in vivo Raman imaging of tumors of mice inoculated with DU145 and LNCaP cells was performed (Figure 6a). The Raman images were captured 2 h after the intravenous (IV) injection of the nanoSABER probe. […] Our results validated that nanoSABER experienced tumor legumain‐triggered self‐assembly into alkyne‐dimer nanoparticles that effectively generated distinct and higher Raman signals in DU145 tumors. To validate our findings, we included a control group that received a PBS injection instead of the nanoSABER probes. In both types of tumors, no Raman signal was detected in the control group (Figure S15, Supporting Information), further confirming that the observed signals in the experimental groups were indeed attributable to the legumain‐instructed self‐assembly of alkyne‐dimer nanoparticles.
(§4) All animal experiments were approved by an institutional animal care and use committee (IACUC) protocol. NU/J nude mice (male, 6–8 weeks old) were subcutaneously injected with 1 × 10^6 DU145 or LNCaP cells in the right flank. Once the tumor reached a volume of 100–200 mm^3, mice were IV injected with 0.0125 mmol kg^–1 nanoSABER or PBS (control group). After 2 h, Raman imaging was performed to determine the amount of intracellular self‐assembly within the tumors.

A further assay concerns LNCaP tumors. The assay is described as follows: in vivo Raman imaging of tumor-bearing mice. Also noted: species or system NU/J nude mice. The conditions noted are these: 2 h after IV injection of 0.0125 mmol kg-1, compared with DU145. The protocol: as §3, §4
In the next assay the test system is DU145 tumors. Kind of assay: ex vivo Raman imaging of excised tumor sections with MCR analysis. The assay is classed as in vivo, NU/J nude mice. The procedure:
Ex vivo Raman imaging was conducted on the tumor excised from the tumor‐bearing mice at 2 h post‐administration of nanoSABER (Figure 6b–d). To distinguish the probe signal from endogenous autofluorescence and Raman‐active molecules in the tissue matrix, multivariate curve resolution (MCR) analysis was performed on the spectral dataset recorded from the Raman‐mapped tumor sections. MCR is designed to tackle such problems by expressing the original data through a bilinear model of pure component meaningful contributions.^[ [43] ^] Tissue sections were divided into five groups: DU145 control, DU145‐nanoSABER, DU145‐Scr, LNCaP control, and LNCaP‐nanoSABER, with the control group representing mice injected with 100 µL of PBS vehicle. Collected Raman spectra were divided into the above‐mentioned classes. The tumor dataset was also supplemented with spectra from the quartz coverslip and a separate class was created to preclude the impact of background spectral features in the ensuing analysis. […] Since we are particularly interested in the wavenumber features in the cell‐silent region (i.e., the nanoSABER‐specific bands in the otherwise biologically silent spectral region), MCR2 serves as the principal differentiator.
To create a readily interpretable two‐dimensional (2D) visualization plot, we plotted MCR2 scores against that of MCR3, which contains primarily tissue‐characteristic and background features (Figure 6c). […] The highest MCR2 and MCR3 scores for the quartz‐only spectra were used as the lower and upper thresholds, respectively, to depict significant contributions from the individual components. […] This is indicative of a 100% specificity of the nanoSABER probe, without secondary non‐specific spectra from any of the other tumor treatment classes in the ROI. Moreover, 15% of all spectra obtained from mice with DU145 tumors treated with the nanoSABER probe were situated within the ROI, which confirms the high penetration efficiency of the nanoprobes. […]

In the case of “Ac‐Arg‐Arg‐Arg‐Arg‐Arg‐Arg‐Ala‐Ala‐Asn‐Cys(StBu)‐Pra‐Lys‐CBT [nanoSABER]”, in the assay with DU145 cells, the “Raman map, alkyne 2120 cm-1 and nitrile 2230 cm-1 signals” value is on record as “undetectable signal levels at 2230 cm^−1”. For the same substance, the “Raman map, alkyne and nitrile signals” value with RWPE1 cells is “signals for both alkyne and nitrile groups from the nanoprobe were observed”; in the assay with LNCaP cells, “signals for both alkyne and nitrile groups from the nanoprobe were observed”. In the assay on DU145 tumor, the “Raman signal of the alkyne peak at 2120 cm-1 in the tumor” value is reported as “Intense Raman signal”. Also, in the assay with LNCaP tumors, the “Raman signal intensity within the tumor” value was “significantly weaker”. For the same substance, in the assay on DU145 tumors (DU145 tumors excised 2 h after IV 0.0125 mmol kg-1), the “average ratio of alkyne to nitrile Raman peak intensity of spectra within the ROI” value was found to be 1.5. Moreover, the “share of all spectra situated within the ROI” value in the assay on DU145 tumors (DU145 tumors excised 2 h after IV 0.0125 mmol kg-1, 12 µm cryosections) amounted to 15%. Moreover, the “specificity (spectra in the ROI of MCR2 versus MCR3 score plot)” value in the assay on DU145 tumors (tumors excised 2 h after IV 0.0125 mmol kg-1, 12 µm cryosections) was 100%.
